In EPA's ToxValDB 9.5:

Assays:
Rattus norvegicus [1] = settings: oral
Rattus norvegicus [2] = assay: FEL; higher = less toxic; settings: duration: 14 days, oral, gavage, Crl:CD(SD)
Rattus norvegicus [3] = settings: oral; remark: listed apart in the source
Mus musculus = settings: uterotrophic; duration: 3 days; oral; Active
[4] = acute, gavage, M, Wistar, Central Nervous System: Novel object recognition test
[5] = chronic, duration: 110 days, gavage, M, Sprague-Dawley, Adrenal: Progesterone (P4)
[6] = chronic, duration: 110 days, gavage, M, Sprague-Dawley, Kidney: Blood Urea Nitrogen (BUN) + Kidney: Creatinine (CREAT), Blood + Liver: Alkaline Phosphatase (ALP), Blood + Liver: Bile Acids, Blood
[7] = chronic, duration: 110 days, gavage, M, Sprague-Dawley, Liver: Liver Histopathology + Liver: Triglycerides (TRIG), Blood
[8] = chronic, duration: 110 days, gavage, M, Sprague-Dawley, Liver: Total Bilirubin (TBILI), Blood + Whole Body: Body Weight Change (0-110d) + Whole Body: Body Weight Change (60-90d) + Whole Body: Body…
[9] = chronic, duration: 110 days, gavage, M, Sprague-Dawley, Testis: Testes, Non-Neoplastic Lesions + Whole Body: Body Weight, Absolute
[10] = chronic, duration: 110 days, gavage, M, Sprague-Dawley, Testis: Testosterone (T)
[11] = reproduction developmental, duration: 14 days, gavage, F, Crl:CD(SD), generation: P0, P0: Heart: Heart Weight, Absolute + P0: Liver: Liver Weight, Relative + P0: Pituitary: Pituitary Gland Weight, Absolute + P0: Spleen: Spleen…
[12] = reproduction developmental, duration: 42 days, gavage, M, Crl:CD(SD), generation: P0, P0: Adrenal Gland: Adrenal Gland, Atrophy of the cortex + P0: Adrenal: Adrenal Gland Weight, Absolute + P0: Blood: Albumin/Globulin (A/G) …
[13] = reproduction developmental, duration: 42 days, gavage, M, Crl:CD(SD), generation: P0, P0: Liver: Alkaline Phosphatase (ALP) + P0: Liver: Liver Weight, Relative + P0: Protein Fraction, Globulin alpha-2
[14] = short-term, duration: 2 weeks, gavage, M, Sprague-Dawley, Adrenal: Estradiol + Adrenal: Testosterone (T) + Testis: Testes Weight, Relative + Whole Body: Body Weight, Absolute
[15] = short-term, duration: 2 weeks, gavage, M, Sprague-Dawley, Liver: Cholesterol (CHOL), Total + Liver: Triglycerides (TRIG), Liver + Liver: Triglycerides (TRIG), Serum
[16] = short-term, duration: 2 weeks, gavage, M, Sprague-Dawley, Liver: Cholesterol (CHOL), Total + Pituitary: Leuteinizing hormone (LH) + Testis: Testes Weight, Absolute
[17] = short-term, duration: 2 weeks, gavage, M, Sprague-Dawley, Liver: Liver Weight, Absolute + Liver: Liver Weight, Relative
[18] = short-term, duration: 28 days, F, Sprague-Dawley, Multi-Organ: Cholesterol (CHOL), Total + Multi-Organ: Estradiol + Whole Body: Body Weight, Absolute
[19] = chronic, duration: 110 days, gavage, M, Sprague-Dawley, Reproductive: Decreased serum testosterone (44%)
[20] = developmental, duration: 47 days, gavage, M/F, Sprague-Dawley, Body Weight: Decreased body weight gain (20-30%) + Developmental: Decreases in pup body weight (only one litter had live pups) + Endocrine: …
[21] = short-term, duration: 14 days, gavage, M, Sprague-Dawley, Body Weight: 25% reduction in final body weight + Reproductive: Decreased serum testosterone (38%) and estradiol (~38%), and ultrastructural…
[22] = short-term, duration: 28 days, gavage, F, Sprague-Dawley, Endocrine: 40% reduced serum estradiol in pubertal females
[23] = subchronic, duration: 47 days, gavage, F, Sprague-Dawley, Hepatic: Single cell necrosis in females / hepatocellular hypertrophy in males and females at […] / bile duct proliferation at […] in …

Q: What does the source list for `O=C(O)C(F)(F)C(F)(F)C(F)(F)C(F)(F)C(F)(F)C(F)(F)C(F)(F)C(F)(F)C(F)(F)C(F)(F)C(F)(F)F` [Perfluorododecanoic acid]?
A: NOAEL (Rattus norvegicus [1]; acute, gavage, M, Wistar, Brain: Brain Weight, Absolute + Central Nervous System: Elevated platform test (elevated plus test) + Central Nervous System: Forced Swim …): 50 mg/kg-day; LOAEL (Rattus norvegicus [1]; acute, gavage, M, Wistar, Brain: Brain Weight, Relative + Central Nervous System: Elevated platform test (elevated plus test) + Central Nervous System: Novel object …): 50 mg/kg-day; LOAEL (Rattus norvegicus [1]; [4]): 20 mg/kg-day; NOAEL (Rattus norvegicus [1]; [4]): 5 mg/kg-day; LOAEL (Rattus norvegicus [1]; [5]): 0.2 mg/kg-day; NOAEL (Rattus norvegicus [1]; [5]): 0.02 mg/kg-day; LOAEL (Rattus norvegicus [1]; [6]): 0.2 mg/kg-day; NOAEL (Rattus norvegicus [1]; [6]): 0.05 mg/kg-day; LOAEL (Rattus norvegicus [1]; chronic, duration: 110 days, gavage, M, Sprague-Dawley, Kidney: Creatine Kinase (CK), Blood + Liver: Albumin (A), Blood + Liver: Liver Weight, Absolute + Liver: Liver Weight, Relative + Liver: Low…): 0.02 mg/kg-day; NOAEL (Rattus norvegicus [1]; chronic, duration: 110 days, gavage, M, Sprague-Dawley, Leuteinizing hormone (LH) + Pancreas: Insulin + Pituitary: Follicle stimulating hormone (FSH) + Pituitary: Growth Hormone + Prostate: …): 0.5 mg/kg-day; NOAEL (Rattus norvegicus [1]; chronic, duration: 110 days, gavage, M, Sprague-Dawley, Liver: Alanine Aminotransferase (ALT), Blood + Liver: Aspartate Aminotransferase (AST), Blood + Liver: Cholesterol (CHOL), Total, Blood + …): 0.5 mg/kg-day; LOAEL (Rattus norvegicus [1]; [7]): 0.05 mg/kg-day; NOAEL (Rattus norvegicus [1]; [7]): 0.02 mg/kg-day; LOAEL (Rattus norvegicus [1]; [8]): 0.5 mg/kg-day; NOAEL (Rattus norvegicus [1]; [8]): 0.2 mg/kg-day; LOAEL (Rattus norvegicus [1]; [9]): 0.5 mg/kg-day; NOAEL (Rattus norvegicus [1]; [9]): 0.2 mg/kg-day; LOAEL (Rattus norvegicus [1]; [10]): 0.2 mg/kg-day; NOAEL (Rattus norvegicus [1]; [10]): 0.05 mg/kg-day; NOAEL (Rattus norvegicus [1]; developmental, duration: 14 days, gavage, F, Crl:CD(SD), generation: F1, F1: Whole Body: Body Weight, Fetal, PND0 + F1: Whole Body: Body Weight, Fetal, PND1 + F1: Whole Body: Body Weight, Fetal, PND4): 0.5 mg/kg-day; NOAEL (Rattus norvegicus [1]; developmental, duration: 14 days, gavage, M, Crl:CD(SD), generation: F1, F1: Whole Body: Body Weight, Fetal, PND0 + F1: Whole Body: Body Weight, Fetal, PND1 + F1: Whole Body: Body Weight, Fetal, PND4): 0.5 mg/kg-day; NOAEL (Rattus norvegicus [1]; reproduction developmental, duration: 14 days, gavage, F, Crl:CD(SD), generation: P0, P0: Adrenal Gland: Adrenal Gland, Atrophy of the cortex + P0: Bone Marrow: Bone Marrow, Decrease in hematopoiesis + P0: Forestomach: …): 2.5 mg/kg-day; NOAEL (Rattus norvegicus [1]; reproduction developmental, duration: 14 days, gavage, F, Crl:CD(SD), generation: P0, P0: Adrenal: Adrenal Gland Weight, Absolute + P0: Adrenal: Adrenal Gland Weight, Relative + P0: Blood: Activated Partial Thromboplastin Time…): 0.5 mg/kg-day; LOAEL (Rattus norvegicus [1]; reproduction developmental, duration: 14 days, gavage, F, Crl:CD(SD), generation: P0, P0: Blood: Hematocrit (HCT) + P0: Blood: Hematocrit (HCT), Recovery + P0: Blood: Hemoglobin (HGB), Recovery + P0: Blood: Mean Corpuscular …): 2.5 mg/kg-day; LOAEL (Rattus norvegicus [1]; [11]): 0.5 mg/kg-day; NOAEL (Rattus norvegicus [1]; [11]): 0.1 mg/kg-day; LOAEL (Rattus norvegicus [1]; reproduction developmental, duration: 14 days, gavage, F, Crl:CD(SD), generation: P0, P0: Multi-Organ: Protein Fraction, Albumin): 0.1 mg/kg-day; NOAEL (Rattus norvegicus [1]; reproduction developmental, duration: 14 days, gavage, M/F, Crl:CD(SD), generation: F1, F1: Uterus: Fetuses, Dead + F1: Uterus: Fetuses, Live + F1: Whole Body: Live Birth Index + F1: Whole Body: Live Pups on Lactation Day 4 + F1…): 0.5 mg/kg-day; LOAEL (Rattus norvegicus [1]; [12]): 2.5 mg/kg-day; NOAEL (Rattus norvegicus [1]; [12]): 0.5 mg/kg-day; NOAEL (Rattus norvegicus [1]; reproduction developmental, duration: 42 days, gavage, M, Crl:CD(SD), generation: P0, P0: Adrenal: Adrenal Gland Weight, Relative + P0: Basophils + P0: Blood: Activated Partial Thromboplastin Time (APTT) + P0: Blood: …): 2.5 mg/kg-day; LOAEL (Rattus norvegicus [1]; [13]): 0.5 mg/kg-day; NOAEL (Rattus norvegicus [1]; [13]): 0.1 mg/kg-day; LOAEL (Rattus norvegicus [1]; [14]): 5 mg/kg-day; NOAEL (Rattus norvegicus [1]; [14]): 1 mg/kg-day; LOAEL (Rattus norvegicus [1]; [15]): 10 mg/kg-day; NOAEL (Rattus norvegicus [1]; [15]): 5 mg/kg-day; LOAEL (Rattus norvegicus [1]; [16]): 10 mg/kg-day; NOAEL (Rattus norvegicus [1]; [16]): 5 mg/kg-day; LOAEL (Rattus norvegicus [1]; [17]): 5 mg/kg-day; NOAEL (Rattus norvegicus [1]; [17]): 1 mg/kg-day; NOAEL (Rattus norvegicus [1]; short-term, duration: 2 weeks, gavage, M, Sprague-Dawley, Pituitary: Follicle stimulating hormone (FSH)): 10 mg/kg-day; NOAEL (Rattus norvegicus [1]; short-term, duration: 28 days, F, Sprague-Dawley, Leuteinizing hormone (LH) + Multi-Organ: Follicle stimulating hormone (FSH) + Ovary: Follicle Count, Antral + Ovary: Follicle Count, …): 3 mg/kg-day; LOAEL (Rattus norvegicus [1]; [18]): 3 mg/kg-day; NOAEL (Rattus norvegicus [1]; [18]): 1.5 mg/kg-day; FEL (Rattus norvegicus [2]; developmental, F, generation: F1, F1: Whole Body: Body Weight, Fetal, PND0 + F1: Whole Body: Body Weight, Fetal, PND1 + F1: Whole Body: Body Weight, Fetal, PND4): 2.5 mg/kg-day; FEL (Rattus norvegicus [2]; developmental, M, generation: F1, F1: Whole Body: Body Weight, Fetal, PND1 + F1: Whole Body: Body Weight, Fetal, PND4): 2.5 mg/kg-day; FEL (Rattus norvegicus [2]; reproduction developmental, F, generation: P0, P0: Adrenal: Adrenal Gland Weight, Absolute + P0: Adrenal: Adrenal Gland Weight, Relative + P0: Blood: Albumin/Globulin (A/G) Ratio + P0: …): 2.5 mg/kg-day; FEL (Rattus norvegicus [2]; reproduction developmental, M/F, generation: F1, F1: Uterus: Fetuses, Dead + F1: Whole Body: Live Birth Index + F1: Whole Body: Male Pups per Pups Sexed + F1: Whole Body: Number of litters): 2.5 mg/kg-day; LOAEL (Rattus norvegicus [3]; acute, duration: 1 days, gavage, M, Wistar, Body Weight: 44% decrease in body weight gain (measured 10-days post-exposure) + Neurological: Impaired performance on novel object …): 50 mg/kg-day; NOAEL (Rattus norvegicus [3]; acute, duration: 1 days, gavage, M, Wistar, Neurological: No alterations in open field activity + Neurological: No alterations in tests of working memory or depressive behavior): 50 mg/kg-day; NOAEL (Rattus norvegicus [3]; chronic, duration: 110 days, gavage, M, Sprague-Dawley): 0.5 mg/kg-day; LOAEL (Rattus norvegicus [3]; [19]): 0.2 mg/kg-day; NOAEL (Rattus norvegicus [3]; [19]): 0.05 mg/kg-day; LOAEL (Rattus norvegicus [3]; [20]): 2.5 mg/kg-day; NOAEL (Rattus norvegicus [3]; [20]): 0.5 mg/kg-day; LOAEL (Rattus norvegicus [3]; [21]): 5 mg/kg-day; NOAEL (Rattus norvegicus [3]; [21]): 1 mg/kg-day; NOAEL (Rattus norvegicus [3]; short-term, duration: 14 days, gavage, M, Sprague-Dawley, Hepatic: 35% increase in total serum cholesterol at 10 mg/kg/day): 10 mg/kg-day; NOAEL (Rattus norvegicus [3]; short-term, duration: 14 days, gavage, M, Sprague-Dawley, Hepatic: Increased liver weight, increased hepatic triglyceride and cholesterol levels at ?5 mg/kg/day / increased serum triglyceride …): 10 mg/kg-day; LOAEL (Rattus norvegicus [3]; [22]): 3 mg/kg-day; NOAEL (Rattus norvegicus [3]; [22]): 1 mg/kg-day; LOAEL (Rattus norvegicus [3]; subchronic, duration: 47 days, gavage, F, Sprague-Dawley, Death: 58% mortality): 2.5 mg/kg-day; LOAEL (Rattus norvegicus [3]; [23]): 2.5 mg/kg-day; NOAEL (Rattus norvegicus [3]; [23]): 0.5 mg/kg-day; NOAEL (Rattus norvegicus [3]; subchronic, duration: 47 days, gavage, M/F, Sprague-Dawley): 2.5 mg/kg-day

Q: How did the LEL (Mus musculus) turn out when `O=C(O)C(F)(F)C(F)(F)C(F)(F)C(F)(F)C(F)(F)C(F)(F)C(F)(F)F` [Perfluorooctanoic acid] was run?
A: Its LEL is 0.01 mg/kg-day.

Q: And the NOAEL (Rattus norvegicus [3]; acute, duration: 1 days, M, Wistar, Neurological: No alteration in performance on novel object recognition test)?
A: Its NOAEL is 50 mg/kg-day.

Q: What about the LOAEL (Rattus norvegicus [3]; developmental, duration: 21 days, F, Wistar, Developmental: 17-18% reduced motor coordination and increased locomotor activity in pups on PNDs 34-35) of the same compound?
A: The LOAEL was 1.6 mg/kg-day.

Q: And the NOAEL (Rattus norvegicus [3]; short-term, duration: 1 weeks, M, Wistar)?
A: Its NOAEL is 38 mg/kg-day.

Q: And the NOAEL (Rattus norvegicus [3]; short-term, duration: 1 weeks, M, Wistar, Hepatic: Significant increase in absolute and relative liver weight at ?4.7 mg/kg/day)?
A: The NOAEL was 9.5 mg/kg-day.

Q: And the NOAEL (Rattus norvegicus [3]; short-term, duration: 14 days, M, Sprague-Dawley, Hepatic: 45% increase in relative liver weight)?
A: The NOAEL was 20 mg/kg-day.

Q: What about the LOAEL (Rattus norvegicus [3]; short-term, duration: 28 days, M, Sprague-Dawley, Neurological: Cachexia and lethargy) of the same compound?
A: The LOAEL was 5 mg/kg-day.
